Results on 4 compounds are retold here after ChEMBL document CHEMBL4038261, “Synthetic strategy with representation on mechanistic pathway for the therapeutic applications of dihydroquinazolinones” (Eur J Med Chem, 2016).

The structures appear in SMILES notation. Bounds are passed on as bounds.

Test [1] relates to Mycobacterium tuberculosis H37Rv. Briefly: Inhibition of Mycobacterium tuberculosis H37Rv Chorismate mutase at 30 uM relative to control.
For a further test, the system named is Plasmodium berghei. Kind of test: Antimalarial activity against liver stage of Plasmodium berghei ANKA harboring luciferase gene infected in human HepG2 cells pretreated for 1 hr followed by parasite infection measured after […] by Bright-Glo luminescence assay. It is filed as functional, cell-based.
A short description of test [2]: Inhibition of Mycobacterium tuberculosis H37Rv Chorismate mutase.

Take `O=C1NC2(CCCCCC2)Nc2ccccc21`: the inhibition (in general, the share of the control response that was lost under treatment) in test [1] is 30 to 35%.
Take `CCN(CC)CCN1C(=O)c2ccccc2NC1c1ccc(Cl)cc1` (centres undefined): the EC50 (as a rule, the concentration at which the effect is half-maximal) in the test on Plasmodium berghei was 1400 nM.
`O=C1NC2(Cc3ccccc3C2)Nc2ccc(I)cc21`: in test [1], the inhibition lay in the range of 30 to 35%.
As to `COc1cc(CCNc2c([N+](=O)[O-])cc(C(=O)O)cc2S(N)(=O)=O)cc(OC)c1`, in test [2], the IC50 (usually the concentration at which inhibition is half-maximal) was under 10000 nM.
